The subject of data set [1] is type 2 diabetic patients. In words: TB4-7 trial: randomized, double-blind, placebo-controlled 2-month trial in type 2 diabetic patients. The class given is in vivo, human. The settings on record: 10 mg s.c. twice a week for 2 months. How it is done: The inventors have performed a single-center, randomized, double-blind, placebo-controlled 2-month trial of twice a week s.c. injection of 10 mg of TB4-7 (a peptide having the amino acid sequence LKKTETQ (SEQ ID NO:1)) in type 2 diabetic patients inadequately treated with diet/lifestyle or stable doses of common hypoglycemics for at least 3 months. The results from an interim 2 month report of that trial is provided in this example.
Patients with type 2 diabetes for >/=1 year were entered into 2 strata of hemoglobin A(1c) (HbA(1c)) levels: Stratum 1: 8.0% to 9.9%; and Stratum 2: 10.0% to 12.0%.
All subjects began a 1-month single-blind placebo run-in phase, followed by randomization in a 2:1 ratio of active treatment: placebo, to 2 months of double-blind treatment with either TB4-7 or saline placebo. Concurrent oral agents were continued unchanged throughout the study.
The primary outcome was the change in HbA(1c) from randomization; results of each stratum were analyzed independently. […] 14 subjects entered stratum 1 and 12 entered stratum 2.

For data set [2], the system named is dogs with canine DM. In words: Dog diabetes mellitus trials. To be noted: 10 mg once a week. Format: in vivo. On the procedure:
A total of 48 dogs took part in the trials. Dogs where put into two groups of 24: one group was injected with the full 10 mg Thymosin beta 4 protein (TB4) once a week; and the other group was injected with 10 mg TB4-7 once a week for four weeks.
Diagnosis criteria of DM and the pre-requisites for study inclusion were:
(1) clinical signs consistent with canine DM, such as polydipsia, polyuria, polyphagia, and weight loss; (2) persistent and 24-hour fasting hyperglycemia (>200 mg/dL) for more than 2 days; (3) persistent glycosuria for more than 2 days; and (4) insulin supplementation required to maintain normal glucose levels.
Glycosylated hemoglobin and blood glucose levels where measured at before every injection and seven days after the last injection.

[3] abbreviates: Week 0 (before first injection).
The mark [4] stands for this setting: Week 4 (seven days after last injection).

No end group written: not given here.

As to LKKTETQ [TB4-7, LKKTETQ], in data set [1], the adverse events entry is “No adverse events” and the tolerability result was “well tolerated”.

For “Thymosin beta 4 (MSDKPDMAEIEKFDKSKLKKTETQEKNPLPSKETIEQEKQAGES; listed as Homo sapiens) [TB4, the full Thymosin beta 4 protein (TB4)]”, the Glucose in data set [2] (setting [3]) was 298 ± 64 mg/dL; in data set [2] (Week 1), 310 ± 78 mg/dL; in data set [2] (Week 2), 296 ± 64 mg/dL; in data set [2] (Week 3), 275 ± 72 mg/dL; in data set [2] (setting [4]), 213 ± 82 mg/dL. Moreover, the HbA1c in data set [2] (setting [3]) is recorded as 7.7 ± 2.2%; in data set [2] (Week 1) it was 7.8 ± 2.3%; in data set [2] (Week 2) it was 7.7 ± 2.2%; in data set [2] (Week 3) it was 7.2 ± 2.6%; in data set [2] (setting [4]) it was 6.1 ± 2.9%.

(Values after patent US8895505B2, “Method of treatment of type 2 diabetes” (AdiStem Ltd., priority 2009, dated 2014).)
